In brackets after ≈: the same amount, converted by molar mass. Read-outs that look alike come from different tables or passages of the source.
Key:
[1] = tested on: Ps. aeruginosa; assay: MIC, two-fold serial agar dilution in Mueller-Hinton agar, group (G-)-III; format: cell-based; conditions: Pseudomonas aeruginosa, Ps. aeruginosa (6 strains), read-out: Geometric Mean of MIC
Procedure: (§1) In the primary evaluation of the compounds of this invention, the Minimum Inhibitory Concentrations (MIC's) of the compounds were determined by the two-fold serial agar dilution method in Mueller-Hinton agar against 32 strains of test organisms in six groups.

[2] = tested on: S. aureus Smith; assay: MIC against specific test organism; format: cell-based; conditions: Staphylococcus aureus, read-out: Minimum Inhibitory Concentration
Procedure: as §1
(§2) The test method was as described for Table 1.

[3] = tested on: Ps. aeruginosa A15150; assay: MIC against specific test organism; format: cell-based; conditions: Pseudomonas aeruginosa, read-out: Minimum Inhibitory Concentration
Procedure: as §1, §2

[4] = tested on: K. pneumoniae A9867; assay: MIC against specific test organism; format: cell-based; conditions: Klebsiella pneumoniae; K. pneumoniae A9867, cephalothin-resistant strain; read-out: Minimum Inhibitory Concentration
Procedure: as §1, §2

[5] = tested on: Ps. aeruginosa A20717; assay: MIC against specific test organism; format: cell-based; conditions: Pseudomonas aeruginosa, read-out: Minimum Inhibitory Concentration
Procedure: as §1, §2

[6] = tested on: E. coli Juhl; assay: MIC against specific test organism; format: cell-based; conditions: Escherichia coli, read-out: Minimum Inhibitory Concentration
Procedure: as §1, §2

[7] = tested on: Ser. marcescens A20019; assay: MIC against specific test organism; format: cell-based; conditions: Serratia marcescens, read-out: Minimum Inhibitory Concentration
Procedure: as §1, §2

[8] = tested on: Ent. cloacae A9656; assay: MIC against specific test organism; format: cell-based; conditions: Enterobacter cloacae, read-out: Minimum Inhibitory Concentration
Procedure: as §1, §2

[9] = tested on: M. morganii A9553; assay: MIC against specific test organism; format: cell-based; conditions: Morganella morganii, read-out: Minimum Inhibitory Concentration
Procedure: as §1, §2

[10] = tested on: Ps. aeruginosa A9843; assay: MIC against specific test organism; format: cell-based; conditions: Pseudomonas aeruginosa, read-out: Minimum Inhibitory Concentration
Procedure: as §1, §2

[11] = tested on: K. pneumoniae D11; assay: MIC against specific test organism; format: cell-based; conditions: Klebsiella pneumoniae, read-out: Minimum Inhibitory Concentration
Procedure: as §1, §2

[12] = tested on: S. aureus BX-1633-2; assay: MIC against specific test organism; format: cell-based; conditions: Staphylococcus aureus, BX16332; S. aureus BX-1633-2, penicillin-resistant strain; read-out: Minimum Inhibitory Concentration
Procedure: as §1, §2

[13] = tested on: E. coli A15164; assay: MIC against specific test organism; format: cell-based; conditions: Escherichia coli; E. coli A15164, cephalothin-resistant strain; read-out: Minimum Inhibitory Concentration
Procedure: as §1, §2

[14] = tested on: Pr. mirabilis A9554; assay: MIC against specific test organism; format: cell-based; conditions: Proteus mirabilis, read-out: Minimum Inhibitory Concentration
Procedure: as §1, §2

[15] = Mouse blood levels after single intramuscular injection; format: in vivo, mice; conditions: for concentration at 10 min / concentration at 20 min / concentration at 0.5 h / concentration at 40 min / concentration at 50 min / concentration at 1 h / concentration at 1.5 h / concentration at 2 h: read-out: Mouse Blood Level; for concentration at 0.5 h: 30 minutes; for concentration at 1 h: 60 minutes; for concentration at 1.5 h: 90 minutes; for concentration at 2 h: 120 minutes
Procedure: The absorption of some of the preferred compounds were determined in mice following a single intramuscular injection of the test compound (dissolved in 0.1M phosphate buffer; pH 7) at a dosage of 10, 20 or 40 mg/kg. Blood samples were collected from the orbital sinuses into heparinized capillary tubes and assayed in Nutrient Agar (pH 6.6) using E. coli Ess-22-31 as the test organism. The blood levels at various time intervals, the half-life values (t1/2) and the areas under the curve (AUC) are shown in Table 3.

[16] = tested on: Cephalothinsensitive E. coli, Kl. pneumoniae and Pr. mirabilis; assay: MIC, two-fold serial agar dilution in Mueller-Hinton agar, group (G-)-Ia; format: cell-based; conditions: (G-)-Ia, cephalothin-sensitive E. coli (2), Kl. pneumoniae (1), Pr. mirabilis (2 strains); read-out: Geometric Mean of MIC
Procedure: as §1
(G-)Ia: Cephalothinsensitive E. coli (2 strains), Kl. pneumoniae (1
strain) and Pr. mirabilis (2 strains)

[17] = tested on: Cephalothinresistant E. coli and Kl. pneumoniae; assay: MIC, two-fold serial agar dilution in Mueller-Hinton agar, group (G-)-Ib; format: cell-based; conditions: read-out: Geometric Mean of MIC
Procedure: as §1
(G-)Ib: Cephalothinresistant E. coli (3 strains) and Kl. pneumoniae (3

[18] = tested on: Penicillinsensitive S. aureus; assay: MIC, two-fold serial agar dilution in Mueller-Hinton agar, group (G+)-Ia; format: cell-based; conditions: Staphylococcus aureus; (G+)-Ia, penicillin-sensitive S. aureus (5 strains); read-out: Geometric Mean of MIC
Procedure: as §1

[19] = tested on: Penicillinresistant S. aureus; assay: MIC, two-fold serial agar dilution in Mueller-Hinton agar, group (G+)-Ib; format: cell-based; conditions: Staphylococcus aureus, read-out: Geometric Mean of MIC
Procedure: as §1
(G+)Ib: Penicillinresistant S. aureus (5 strains)

[20] = tested on: M. morganii, Ent. cloacae and Ser. marcescens; assay: MIC, two-fold serial agar dilution in Mueller-Hinton agar, group (G-)-II; format: cell-based; conditions: read-out: Geometric Mean of MIC
Procedure: as §1
(G-)II: M. morganii (1 strain), Ent. cloacae (2 strains) and Ser.

SMILES: CO/N=C(\C(=O)NC1C(=O)N2C(C(=O)[O-])=C(C[n+]3ccsc3SC)CS[C@H]12)c1csc(N)n1 (some centres unmarked) [Example 3, 7-[(Z)-2-(2-Aminothiazol-4-yl)-2-(methoxyimino)acetamido]-3-(2-methylthiothiazolio)methyl-3-cephem-4-carboxylate]
- MIC [1]: 2 µg/mL (≈ 3.8 µM)
- MIC [2]: 0.4 µg/mL (≈ 0.76 µM)
- MIC [3]: 0.8 µg/mL (≈ 1.52 µM)
- MIC [4]: 0.8 µg/mL (≈ 1.52 µM)
- MIC [5]: 6.3 µg/mL (≈ 12 µM)
- MIC [6]: 0.025 µg/mL (≈ 0.0475 µM)
- MIC [7]: 0.025 µg/mL (≈ 0.0475 µM)
- MIC [8]: 0.05 µg/mL (≈ 0.0949 µM)
- MIC [9]: 0.2 µg/mL (≈ 0.38 µM)
- MIC [10]: 3.1 µg/mL (≈ 5.89 µM)
- MIC [11]: 0.025 µg/mL (≈ 0.0475 µM)
- MIC [12]: 0.8 µg/mL (≈ 1.52 µM)
- MIC [13]: 0.1 µg/mL (≈ 0.19 µM)
- MIC [14]: 0.05 µg/mL (≈ 0.0949 µM)
- AUC ([15]; 10 mg/kg im): 18000 ng·h/mL
- half-life ([15]; 10 mg/kg im): 47 min
- concentration at 10 min ([15]; 10 mg/kg im): 14000 ng/mL
- concentration at 20 min ([15]; 10 mg/kg im): 14000 ng/mL
- concentration at 0.5 h ([15]; 10 mg/kg im): 12000 ng/mL
- concentration at 40 min ([15]; 10 mg/kg im): 10000 ng/mL
- concentration at 50 min ([15]; 10 mg/kg im): 9800 ng/mL
- concentration at 1 h ([15]; 10 mg/kg im): 6800 ng/mL
- concentration at 1.5 h ([15]; 10 mg/kg im): 5200 ng/mL
- concentration at 2 h ([15]; 10 mg/kg im): 3200 ng/mL
- AUC ([15]; 20 mg/kg im): 29000 ng·h/mL
- half-life ([15]; 20 mg/kg im): 46 min
- concentration at 10 min ([15]; 20 mg/kg im): 24000 ng/mL
- concentration at 20 min ([15]; 20 mg/kg im): 22000 ng/mL
- concentration at 0.5 h ([15]; 20 mg/kg im): 20000 ng/mL
- concentration at 40 min ([15]; 20 mg/kg im): 17000 ng/mL
- concentration at 50 min ([15]; 20 mg/kg im): 13000 ng/mL
- concentration at 1 h ([15]; 20 mg/kg im): 11000 ng/mL
- concentration at 1.5 h ([15]; 20 mg/kg im): 9500 ng/mL
- concentration at 2 h ([15]; 20 mg/kg im): 4500 ng/mL
- AUC ([15]; 40 mg/kg im): 60000 ng·h/mL
- half-life ([15]; 40 mg/kg im): 54 min
- concentration at 10 min ([15]; 40 mg/kg im): 48000 ng/mL
- concentration at 20 min ([15]; 40 mg/kg im): 36000 ng/mL
- concentration at 0.5 h ([15]; 40 mg/kg im): 32000 ng/mL
- concentration at 40 min ([15]; 40 mg/kg im): 32000 ng/mL
- concentration at 50 min ([15]; 40 mg/kg im): 24000 ng/mL
- concentration at 1 h ([15]; 40 mg/kg im): 20000 ng/mL
- concentration at 1.5 h ([15]; 40 mg/kg im): 15000 ng/mL
- concentration at 2 h ([15]; 40 mg/kg im): 10000 ng/mL
- MIC [16]: 0.022 µg/mL (≈ 0.0418 µM)
- MIC [17]: 0.15 µg/mL (≈ 0.285 µM)
- MIC [18]: 0.23 µg/mL (≈ 0.437 µM)
- MIC [19]: 0.8 µg/mL (≈ 1.52 µM)
- MIC [20]: 0.14 µg/mL (≈ 0.266 µM)

SMILES: CCO/N=C(\C(=O)NC1C(=O)N2C(C(=O)[O-])=C(C[n+]3ccsc3SC)CS[C@H]12)c1csc(N)n1 (some centres unmarked) [Example 4, 7-[(Z)-2-(2-Aminothiazol-4-yl)-2-(ethoxyimino)acetamido]-3-(2-methylthiothiazolio)methyl-3-cephem-4-carboxylate]
- MIC [1]: 5.6 µg/mL (≈ 10.4 µM)
- MIC [2]: 0.4 µg/mL (≈ 0.74 µM)
- MIC [3]: 3.1 µg/mL (≈ 5.73 µM)
- MIC [4]: 1.6 µg/mL (≈ 2.96 µM)
- MIC [5]: 12.5 µg/mL (≈ 23.1 µM)
- MIC [6]: 0.1 µg/mL (≈ 0.185 µM)
- MIC [7]: 0.1 µg/mL (≈ 0.185 µM)
- MIC [8]: 0.2 µg/mL (≈ 0.37 µM)
- MIC [9]: 0.4 µg/mL (≈ 0.74 µM)
- MIC [10]: 12.5 µg/mL (≈ 23.1 µM)
- MIC [11]: 0.1 µg/mL (≈ 0.185 µM)
- MIC [12]: 0.4 µg/mL (≈ 0.74 µM)
- MIC [13]: 0.2 µg/mL (≈ 0.37 µM)
- MIC [14]: 0.2 µg/mL (≈ 0.37 µM)
- MIC [16]: 0.076 µg/mL (≈ 0.141 µM)
- MIC [17]: 0.32 µg/mL (≈ 0.592 µM)
- MIC [18]: 0.35 µg/mL (≈ 0.647 µM)
- MIC [19]: 0.61 µg/mL (≈ 1.13 µM)
- MIC [20]: 0.69 µg/mL (≈ 1.28 µM)

Source: patent publication US4507487A, “Chemical compounds” (Bristol-Myers Company, priority 1983, dated 1985)
